The source of these data is patent publication US5776935A, “Pyrido-phtalazin diones and their use against neurological disorders associated with excitotoxicity and malfunctioning of glutamatergic neurotransmission” (Merz & Co. GmbH & Co., priority 1996, dated 1998).

Data set [1] has as its system AMPA. Description: Microelectrophoretic application of AMPA to spinal neurones in vivo. The settings on record: i.v., responses of single rat spinal neurones. How it is done:
(§1) The ability of these glycineB antagonists to act as NMDA receptor antagonists in vivo was assessed using i.v. administration against responses of single neurones in the rat spinal cord to microelectrophoretic application of AMPA and NMDA.

Data set [2] deals with T1, NMDA receptor (Rattus norvegicus, UniProt P35439).
T1 construct: endogenous in cells
Description: Microelectrophoretic application of NMDA to spinal neurones in vivo. Particulars: i.v., responses of single rat spinal neurones. As to the method: as §1

Data set [3] has as its system organic acid transport. Description: Duration of anticonvulsive action with and without probenecid. The settings on record: listed as 2/514. It is filed as in vivo, mouse. How it is done: To assess NMDA receptor antagonistic properties of the tested agents by assessing anticonvulsive effects. Additionally the role of organic acid transporters in the elimination from the brain of tested agents was assessed by using an inhibitor, Probenicid, on the duration of anticonvulsive activity.
Male albino Swiss mice (19-21 g) housed 10-15 per cage were used for the NMDA lethality test (Leander et al., 1988). For pentylenetetrazol (PTZ)-induced convulsions male albino Swiss mice (25-34 g.) housed 40 per cage (58×38×20 cm) were used while in the maximal electroshock (MES) and motor impairment tests NMR female mice (18-28 g) housed 5 per cage were employed. All animals were kept with water and food ad libittum under a 12-h light-dark cycle (light on at 6 a.m.), and at a controlled temperature (20°±0.5° C.). All experiments were performed between 10 a.m. and 5 p.m. Tested agents were injected 15 min. i.p before the induction of convulsions if not stated otherwise (see below). Mrz 2/502 was dissolved in saline added with NaOH. Most other agents were dissolved in the following solution: 0.606 g Tris; 5.0 g. glucose; 0.5 g. Tween 80; and 95 ml water. The choline and tetramethylammonium salts were dissolved in distilled water.
MES (100 Hz, 0.5 sec shock duration, 50 mA shock intensity, 0.9 ms impulse duration, Ugo Basile) was applied through corneal electrodes. The presence of tonic convulsions was scored (tonic extension of hind paws with minimum angle to the body of 90°). In an additional experiment mice were injected with Probenicid (200 mg/kg) 30 min before administration of the tested agents to assess the role of organic acid transport in elimination (duration of action). The aim was to obtain ED50 s for all parameters scored using the Litchfield Wilcoxon (1949) test for quantal dose responses.
Moreover it seems that choline salts have a longer duration of action. Probenecid injection prolonged considerably the duration of anticonvulsive action of all agents tested. For example the half lives of 2/514 and 2/570 were around 40 and 80 minutes respectively in the absence of probenicid. In the presence of probenicid the half lives were prolonged to around 180 and 210 minutes respectively. Thus, it seems that organic acids transport in the choroid plexus out of the brain plays an important role in the short duration of action of the compounds tested..

Data set [4] can be described thus: In vivo systemic and / or CNS availability.

For `O=c1[nH][nH]c(=O)c2nc3ccc(Cl)cc3cc12` [Mrz 2/501], the “Microelectrophoretic AMPA ID50” value in data set [1] is over 16.0 mg/kg. In addition, in data set [2], the “Microelectrophoretic NMDA ID50” value is over 16.0 mg/kg.

As for `O=c1[nH]nc(O)c2c1cc1cc(Cl)ccc1[n+]2[O-]` [Mrz 2/502, 8-chloro-4-hydroxy-1-oxo-1,2-dihydropyridazino[4,5-b]-quinoline 5-oxide], the “Microelectrophoretic AMPA ID50” value in data set [1] (listed as 502) was 4.9 mg/kg. For the same compound, the “Microelectrophoretic NMDA ID50” value in data set [2] and in data set [2] (listed as 502) was 1.2 mg/kg in each case.

Turning to `O=c1[nH]nc(O)c2c1cc1cc(Br)ccc1[n+]2[O-]` [Mrz 2/514, 8-bromo-4-hydroxy-1-oxo-1,2-dihydropyridazino[4,5-b]-quinoline 5-oxide], the “half life of anticonvulsive action” value was “around 40 minutes” in data set [3] (absence of probenecid) and “around 180 minutes” in data set [3] (presence of probenecid 200 mg/kg, 30 min before). The “in vivo systemic and / or CNS availability versus associated class I compounds” value in data set [4] is “much better”.

As for `O=c1[nH]nc(O)c2c1cc1cc(F)ccc1[n+]2[O-]` [Mrz 2/516, 8-fluoro-4-hydroxy-1-oxo-1,2-dihydropyridazino[4,5-b]-quinoline 5-oxide], the “in vivo systemic and / or CNS availability versus associated class I compounds” value in data set [4] was “much better”. Also, in data set [1] (listed as 516), the “Microelectrophoretic AMPA ID50” value came to 3.6 mg/kg. For the same compound, the “Microelectrophoretic NMDA ID50” value in data set [2] and in data set [2] (listed as 516) was 1.8 mg/kg each time.

As for `O=c1[nH][nH]c(=O)c2nc3ccc(F)cc3cc12` [Mrz 2/519], the “Microelectrophoretic AMPA ID50” value in data set [1] is given as over 16.0 mg/kg. Moreover, the “Microelectrophoretic NMDA ID50” value in data set [2] is given as over 16.0 mg/kg.
